# Laboratory results taken from ChEMBL document CHEMBL3259536, “New 2H-chromene-3-carboxamide derivatives: design, synthesis and use as inhibitors of hMAO” (Eur J Med Chem, 2014).
# Experiments:
# [1] = target: T1, Amine oxidase [flavin-containing] B (Homo sapiens, UniProt P27338); assay: Inhibition of human recombinant MAO-B expressed in baculovirus infected insect cell microsomes assessed as p-tyramine conversion to resorufin and H2O2 after 15 mins by fluorimetric assay
# T1 sequence (P27338 whole entry): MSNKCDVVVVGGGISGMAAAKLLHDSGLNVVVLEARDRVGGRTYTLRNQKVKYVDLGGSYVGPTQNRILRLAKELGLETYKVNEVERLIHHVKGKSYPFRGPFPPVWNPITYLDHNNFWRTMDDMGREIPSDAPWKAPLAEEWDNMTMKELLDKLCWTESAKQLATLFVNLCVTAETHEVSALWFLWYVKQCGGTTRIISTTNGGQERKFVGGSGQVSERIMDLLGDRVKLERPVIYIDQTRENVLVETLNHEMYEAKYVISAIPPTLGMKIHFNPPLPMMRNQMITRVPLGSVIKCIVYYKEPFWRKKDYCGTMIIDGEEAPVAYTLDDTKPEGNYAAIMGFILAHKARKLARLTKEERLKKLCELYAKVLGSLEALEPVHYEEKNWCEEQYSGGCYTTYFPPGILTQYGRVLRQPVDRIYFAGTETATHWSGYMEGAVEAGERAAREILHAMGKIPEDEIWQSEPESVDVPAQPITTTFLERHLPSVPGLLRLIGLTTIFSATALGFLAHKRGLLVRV
# [2] = target: T2, Amine oxidase [flavin-containing] A (Homo sapiens, UniProt P21397); assay: Inhibition of human recombinant MAO-A expressed in baculovirus infected insect cell microsomes assessed as p-tyramine conversion to resorufin and H2O2 after 15 mins by fluorimetric assay
# T2 sequence (P21397 whole entry): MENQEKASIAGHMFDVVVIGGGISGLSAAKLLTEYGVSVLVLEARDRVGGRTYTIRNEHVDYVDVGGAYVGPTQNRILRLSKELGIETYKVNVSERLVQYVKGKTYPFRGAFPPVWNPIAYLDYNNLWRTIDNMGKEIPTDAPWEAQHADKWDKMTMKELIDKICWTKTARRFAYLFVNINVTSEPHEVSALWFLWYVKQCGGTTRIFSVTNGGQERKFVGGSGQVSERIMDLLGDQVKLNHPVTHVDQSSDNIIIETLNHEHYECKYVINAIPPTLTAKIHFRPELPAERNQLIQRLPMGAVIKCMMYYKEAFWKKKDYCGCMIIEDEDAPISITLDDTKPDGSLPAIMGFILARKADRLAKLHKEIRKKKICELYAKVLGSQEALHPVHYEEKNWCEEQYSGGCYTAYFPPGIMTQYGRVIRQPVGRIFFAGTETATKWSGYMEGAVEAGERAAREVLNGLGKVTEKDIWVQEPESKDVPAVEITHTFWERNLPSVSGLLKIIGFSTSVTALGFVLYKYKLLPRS
# Homo sapiens = species: Homo sapiens; assay: Selectivity index, ratio of IC50 for human recombinant MAO-A to IC50 for human recombinant MAO-B
# [3] = target: T2, Amine oxidase [flavin-containing] A; assay: Inhibition of human recombinant MAO-A expressed in baculovirus infected insect cell microsomes assessed as p-tyramine conversion to resorufin and H2O2 at 60 uM after 15 mins by fluorimetric assay; details: 0.25 h
# [4] = target: T1, Amine oxidase [flavin-containing] B; assay: Inhibition of human recombinant MAO-B expressed in baculovirus infected insect cell microsomes assessed as p-tyramine conversion to resorufin and H2O2 at 60 uM after 15 mins by fluorimetric assay; details: 0.25 h
smiles,measurement,setting,value
CCC(C)NC(=O)c1cc2cc([N+](=O)[O-])ccc2oc1=O (centres undefined),IC50,[1],19.1 µM
same,IC50,[2],37.5 µM
same,Ratio IC50,Homo sapiens,1.97
O=C(Nc1cccc(C(F)(F)F)c1)c1cc2ccccc2oc1=O,inhibition (INH),[3],Not Active
O=C(c1cc2cc(Br)cc(Br)c2oc1=O)N(c1ccccc1)c1ccccc1,inhibition (INH),[3],Not Active
same,inhibition (INH),[4],Not Active
COc1ccccc1NC(=O)c1cc2ccccc2oc1=O,IC50,[1],35.4 µM
same,inhibition (INH),[3],Not Active
same,Ratio IC50,Homo sapiens,1.7
Cc1ccccc1NC(=O)c1cc2cc([N+](=O)[O-])ccc2oc1=O,IC50,[1],29.4 µM
same,inhibition (INH),[3],Not Active
same,Ratio IC50,Homo sapiens,2
O=C(NCCCN1CCOCC1)c1cc2ccccc2oc1=O,IC50,[1],13.5 µM
same,IC50,[2],42.3 µM
same,Ratio IC50,Homo sapiens,3.1
O=C(c1cc2ccccc2oc1=O)N(c1ccccc1)c1ccccc1,inhibition (INH),[3],Not Active
same,inhibition (INH),[4],Not Active
O=C(Nc1cccc(C(F)(F)F)c1)c1cc2cc(Br)cc(Br)c2oc1=O,IC50,[1],7.09 µM
same,inhibition (INH),[3],Not Active
same,Ratio IC50,Homo sapiens,8.46
O=C(NCCCN1CCOCC1)c1cc2cc([N+](=O)[O-])ccc2oc1=O,IC50,[1],46.1 µM
same,inhibition (INH),[3],Not Active
same,Ratio IC50,Homo sapiens,1.3
Cc1cccc(NC(=O)c2cc3cc([N+](=O)[O-])ccc3oc2=O)c1,IC50,[1],39.1 µM
same,inhibition (INH),[3],Not Active
same,Ratio IC50,Homo sapiens,1.5
Cc1ccccc1NC(=O)c1cc2cc(Br)cc(Br)c2oc1=O,IC50,[1],4.68 µM
same,inhibition (INH),[3],Not Active
same,Ratio IC50,Homo sapiens,12.8
Cc1cccc(NC(=O)c2cc3cc(Br)cc(Br)c3oc2=O)c1,IC50,[1],21.5 µM
same,inhibition (INH),[3],Not Active
same,Ratio IC50,Homo sapiens,2.78
O=C(Nc1cccc(C(F)(F)F)c1)c1cc2cc([N+](=O)[O-])ccc2oc1=O,IC50,[1],22.8 µM
same,inhibition (INH),[3],Not Active
same,Ratio IC50,Homo sapiens,2.6
Cc1ccccc1NC(=O)c1cc2ccccc2oc1=O,IC50,[1],2.96 µM
same,inhibition (INH),[3],Not Active
same,Ratio IC50,Homo sapiens,20.3
CCCCCCN(CCCCCC)C(=O)c1cc2ccccc2oc1=O,IC50,[1],8.05 µM
same,IC50,[2],14.2 µM
same,Ratio IC50,Homo sapiens,1.8
O=C(NCCCN1CCOCC1)c1cc2cc(Br)cc(Br)c2oc1=O,IC50,[1],10.6 µM
same,IC50,[2],32.4 µM
same,Ratio IC50,Homo sapiens,3.1
CC(C)(C)NC(=O)c1cc2cc(Br)cc(Br)c2oc1=O,IC50,[1],14.7 µM
same,IC50,[2],31.5 µM
same,Ratio IC50,Homo sapiens,2.1
COc1ccccc1NC(=O)c1cc2cc(Br)cc(Br)c2oc1=O,IC50,[1],20.2 µM
same,inhibition (INH),[3],Not Active
same,Ratio IC50,Homo sapiens,2.97
COc1ccccc1NC(=O)c1cc2cc([N+](=O)[O-])ccc2oc1=O,IC50,[1],50 µM
same,inhibition (INH),[3],Not Active
same,Ratio IC50,Homo sapiens,1.2
Cc1cccc(NC(=O)c2cc3ccccc3oc2=O)c1,inhibition (INH),[3],Not Active
